# Patent publication EP0910652B1, “HORMONE-MEDIATED METHODS FOR […] EXOGENOUS GENES IN MAMMALIAN SYSTEMS, AND PRODUCTS RELATED THERETO” (THE SALK INSTITUTE FOR BIOLOGICAL STUDIES, priority 1996, dated 1997)
# Tests used:
# [1] = test system: CV-1 cells transfected with CMX-GEcR, CMX-hRXRa, and EcREx5-DMTV-Luc; experiment: Muristerone bioavailability: serum of injected mice tested on transfected CV-1 cells; assay type: in vivo
# Procedure: For muristerone bioavailability studies, adult mice were injected intraperitoneally with sesame oil with or without 10mg of muristerone, and were subsequently sacrificed for serum collection. After twelve hours, blood was drawn from the mice, and the serum was isolated by brief centrifugation of the whole blood. In order to conduct transfection assays to test for muristerone activity, serum from sesame oil injected mice was divided, and half was supplemented with muristerone to a final concentration of 10µM. The three batches of mouse serum were diluted 1:10 in DMEM and placed onto CV-1 cells transfected with CMX-GEcR, CMX-hRXRa, and EcREx5-DMTV-Luc.
# [2] = test system: modified ecdysone receptor VpEcR (SEQ ID NO:7; N-terminal truncation of EcR fused to VP16 activation domain) with RXR; experiment: Transient transfection reporter assay in CV-1 cells, muristerone responsiveness; assay type: cell-based; settings: 1µM muristerone A vs no hormone
# Procedure: (§1) CV-1 cells were maintained in DMEM supplemented with 10% Fetal Bovine Serum. Transient transfections were performed using DOTAP transfection reagent (Boehringer-Mannheim). Transfections using ß-galactosidase as the reporter were assayed either by Galactolight luminescent assay (Tropix, Bedford, MA) or by standard liquid ONPG assay (Sigma, St. Louis, MO). The values were normalized by co-transfection of CMX-luciferase. Transfections using luciferase as the reporter were assayed by standard techniques using luciferin and ATP. These values were normalized by co-transfection of CMX-ß-galactosidase. Hormone treated cells were treated with ethanol, 50 µM Juvenile Hormone III (Sigma), 1µM muristerone A (Zambon, Bresso, IT), or 1µM dexamethasone (Sigma) unless otherwise noted.
# pregnant mice = experiment: Teratogenic study in pregnant mice; assay type: in vivo; settings: 20mg muristerone A in sesame oil, mother and pups observed for three months
# [3] = test system: VpEcR (SEQ ID NO:7) with RXR (CMX-hRXRa) in N13 cells; experiment: Ecdysone responsiveness in stable cell line N13 (293 cells), ß-galactosidase and luciferase reporters; assay type: cell-based; settings: 36 hours
# Procedure: Stable cell lines were generated containing the modified ecdysone receptor VpEcR, a heterodimeric partner (RXR), and an ecdysone inducible reporter (Figure 2). 293 cells were transfected with the following linearized plasmids, pRC-ESHß, EcREx5-ΔMTV-Luc, CMX-VpEcR, and CMX-hRXRa. The following day, the cells were split 1:10 and were allowed to recover one day prior to selection with 1mg/ml G418 (GIBCO). After 14 days of selection, 14 individual clones were isolated and grown separately in the presence of 0.5mg/ml G418.
# One of these cell lines, N13, was grown in the presence or absence of 1µM muristerone for 20 hours. Cell lysates were then assayed for ß-galactosidase and luciferase activities as described in Example 1. X-gal staining was performed on the stable cell lines. Cells were fixed briefly with 10% formaldehyde in PBS and then stained with X-Gal (Molecular Probes, Eugene, OR) for 2 to 6 hours. After 24 hours of treatment with 1µM muristerone, 100% of the cells turned dark blue after 3 hours of staining. Thus, mammalian cells containing the modified ecdysone receptor VpEcR, a heterodimeric partner (RXR), and a reporter gene construct regulated by a modified ecdysone response element, function to efficiently express an exogenous gene in response to a ligand, e.g., ecdysone. […]
# Finally, the kinetics of muristerone mediated induction was measured. […]
# [4] = test system: VpEcR and RXR (CD3-VpEcR; CD3-RXR) with ecdysone inducible reporter ESHß; experiment: Muristerone dependent gene expression in receptor/reporter transgenic mice, Northern blot; assay type: in vivo; settings: 10mg muristerone intraperitoneal, RNA isolated 48 hours after treatment
# Procedure: To produce transgenic mice, the following DNA constructs were prepared and subsequently injected into fertilized eggs: CD3-VpEcR, CD3-RXR, ESHß (Lee et al., J. Exp. Med. 175:1013-1025 (1992)). Two separate lines of transgenic mice were generated harboring either an ecdysone inducible reporter, ESHß, or a T-cell specific expression construct of VpEcR and RXR, respectively. The former are referred to as reporter mice, the latter are referred to as receptor mice, and double transgenic mice are referred to as receptor/reporter mice. Constructs CD3-VpEcR and CD3-RXR were mixed and coinjected, while ESHß was injected alone. Primary genotyping was performed by Southern blot analysis and the transmission of transgenic mice was monitored by dot blot analysis. Receptor mice were analyzed for VpEcR and RXR expression by Northern blot analysis of RNA collected from these mice. For Northern blot analysis, 15µg of total RNA obtained from the thymus, and various tissues as a control, was run on a denaturing gel and blotted onto a nitrocellulose membrane. The blot was probed with a radiolabeled ß-gal-specific probe and exposed on film for 2 days. These receptor mice were healthy, fertile, and appeared normal by visual inspection. In addition, the transgene was transferred to the offspring as expected by Mendelian genetics. […]
# [5] = test system: ecdysone receptor (EcR) with its natural heterodimeric partner USP; experiment: Transient transfection reporter assay in CV-1 cells, muristerone responsiveness; assay type: cell-based; settings: 1µM muristerone A vs ethanol
# Procedure: as §1
# (§2) To maximize the sensitivity of the invention ecdysone inducible system, modifications of the ecdysone receptor were made. The N-terminal transactivation domain of the ecdysone receptor was replaced by the corresponding domain of the glucocorticoid receptor (GR), resulting in the modified ecdysone receptor GEcR (See Figure 1D). CV-1 cells were transfected with the plasmid CMX-GEcR encoding the modified ecdysone receptor as discussed above. After transfection, cells were either treated with ethanol or 1µM muristerone A. This hybrid modified ecdysone receptor boosted muristerone responsiveness from 3- to 11-fold in a transient transfection assay (Fig. 1A).
# [6] = test system: modified ecdysone receptor GEcR (SEQ ID NO:9; N-terminal transactivation domain of GR, DNA- and ligand-binding domains of EcR) with USP; experiment: as above; assay type: cell-based; settings: 1µM muristerone A vs ethanol
# Procedure: as §1, §2
# [7] = test system: modified ecdysone receptor GEcR (SEQ ID NO:9) with retinoid X receptor (RXR); experiment: as above; assay type: cell-based; settings: 1µM muristerone A vs ethanol
# Procedure: as §1, §2
# adult mice = experiment: Toxicity study in adult mice; assay type: in vivo; settings: 20mg muristerone A in sesame oil, intraperitoneal, observed approximately two months
# Procedure: In order to use muristerone as a potential hormone in mice, its toxicity and bioavailability was examined. For toxicity studies, adult mice were injected intraperitonealy with 20mg of muristerone A suspended in sesame oil. The mice were then observed for approximately two months. […] In addition to the inert qualities of muristerone (an ecdysone), overexpression of VpEcR and RXR appears not to be toxic.
smiles,measurement,setting,value
CC(C)CC[C@@H](O)[C@](C)(O)[C@H]1CC[C@@]2(O)C3=CC(=O)[C@]4(O)C[C@@H](O)[C@@H](O)C[C@]4(C)[C@H]3[C@H](O)C[C@]12C [muristerone A],luciferase activity of serum from muristerone treated mice,"[1]; 10mg muristerone intraperitoneal, serum after twelve hours, diluted 1:10 in DMEM",comparable to that seen from untreated mouse serum supplemented with 1µM muristerone
same,activity when injected into mice,[1]; injected into mice,maintains its activity
same,inactivation by serum binding proteins,[1]; injected into mice,nor inactivated by serum binding proteins
same,blunting of activity due to association with serum proteins,[1]; mouse serum,little or no blunting of activity
same,induction,[2],212 fold
same,teratogenicity,pregnant mice,"neither toxic, teratogenic"
same,inducibility,"[3]; final concentration 10µM muristerone, ß-galactosidase and luciferase reporters",~3 orders of magnitude
same,induction,[3]; muristerone concentrations as low as 100nM,One-hundred
same,induction from an ecdysone inducible promoter in the thymus,[4],significant induction
same,muristerone responsiveness (induction),[5],3 fold
same,muristerone responsiveness (induction),[6],11 fold
same,induction,[7],34 fold
same,toxicity,adult mice,neither toxic
